Reference: the supplement of paper PMC10307832

Columns and labels:
Experiment in all cases: relative viability (nuclei count vs DMSO), 5 days (fraction); higher = more cells survive
[1] = tested on: NCI-H647
How it was run: (§1)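 Each reported value is a median over duplicate plates. It expresses relative viability: treated-well nuclei count divided by vehicle-well nuclei count. Lung cancer cell lines in 1536-well plates were dosed by pin tool a day after seeding, alone with one drug or with a fixed anchor-drug dose plus five library-drug doses (not always all listed) in √10 steps, and nuclei were counted after 5 days.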

[2] = tested on: NCI-H2347
How it was run: as §1

[3] = tested on: NCI-H322M
How it was run: as §1

[4] = tested on: NCI-H2405
How it was run: as §1

[5] = tested on: NCI-H460
How it was run: as §1

[6] = tested on: RERF-LC-KJ
How it was run: as §1

[7] = tested on: H3255
How it was run: as §1

[8] = tested on: UMC-11
How it was run: as §1

[9] = tested on: NCI-H23
How it was run: as §1

[10] = tested on: NCI-H3122
How it was run: as §1

[11] = tested on: LXF-289
How it was run: as §1

[12] = tested on: PC-14
How it was run: as §1

[13] = tested on: EKVX
How it was run: as §1

[14] = tested on: NCI-H2085
How it was run: as §1

[15] = tested on: SK-LU-1
How it was run: as §1

[16] = tested on: NCI-H1734
How it was run: as §1

[17] = tested on: NCI-H1651
How it was run: as §1

[18] = tested on: NCI-H358
How it was run: as §1

[19] = tested on: COR-L23
How it was run: as §1

[20] = tested on: NCI-H1993
How it was run: as §1

[21] = tested on: A-427
How it was run: as §1

[22] = tested on: LK-2
How it was run: as §1

[23] = tested on: NCI-H1437
How it was run: as §1

[24] = tested on: SW 900
How it was run: as §1

[25] = tested on: NCI-H2087
How it was run: as §1

Compound: Cc1cn(-c2cc(NC(=O)c3ccc(C)c(Nc4nccc(-c5cccnc5)n4)c3)cc(C(F)(F)F)c2)cn1 [Nilotinib] + Nc1nc2[nH]cc(CCc3ccc(C(=O)N[C@@H](CCC(=O)O)C(=O)O)cc3)c2c(=O)[nH]1 [Pemetrexed] (partner 0.2 µM)
- relative viability ([1]; first compound 0.001 µM): 0.158
- relative viability ([1]; first compound 0.003162 µM): 0.158
- relative viability ([1]; first compound 0.01 µM): 0.118
- relative viability ([1]; first compound 0.03162 µM): 0.138
- relative viability ([1]; first compound 0.1 µM): 0.118
- relative viability ([2]; first compound 0.001 µM): 0.401
- relative viability ([2]; first compound 0.003162 µM): 0.384
- relative viability ([2]; first compound 0.01 µM): 0.435
- relative viability ([2]; first compound 0.03162 µM): 0.517
- relative viability ([2]; first compound 0.1 µM): 0.418
- relative viability ([3]; first compound 0.001 µM): 0.757
- relative viability ([3]; first compound 0.003162 µM): 0.774
- relative viability ([3]; first compound 0.01 µM): 0.576
- relative viability ([3]; first compound 0.03162 µM): 0.593
- relative viability ([3]; first compound 0.1 µM): 0.645
- relative viability ([4]; first compound 0.001 µM): 1.03
- relative viability ([4]; first compound 0.003162 µM): 0.91
- relative viability ([4]; first compound 0.01 µM): 0.924
- relative viability ([4]; first compound 0.03162 µM): 0.699
- relative viability ([4]; first compound 0.1 µM): 0.614
- relative viability ([5]; first compound 0.001 µM): 0.0733
- relative viability ([5]; first compound 0.003162 µM): 0.0599
- relative viability ([5]; first compound 0.01 µM): 0.0632
- relative viability ([5]; first compound 0.03162 µM): 0.0736
- relative viability ([5]; first compound 0.1 µM): 0.0505
- relative viability ([6]; first compound 0.001 µM): 0.508
- relative viability ([6]; first compound 0.003162 µM): 0.6
- relative viability ([6]; first compound 0.01 µM): 0.454
- relative viability ([6]; first compound 0.03162 µM): 0.422
- relative viability ([6]; first compound 0.1 µM): 0.274
- relative viability ([7]; first compound 0.001 µM): 0.528
- relative viability ([7]; first compound 0.003162 µM): 0.671
- relative viability ([7]; first compound 0.01 µM): 0.578
- relative viability ([7]; first compound 0.03162 µM): 0.579
- relative viability ([7]; first compound 0.1 µM): 0.523
- relative viability ([8]; first compound 0.001 µM): 0.789
- relative viability ([8]; first compound 0.003162 µM): 0.914
- relative viability ([8]; first compound 0.01 µM): 0.857
- relative viability ([8]; first compound 0.03162 µM): 0.495
- relative viability ([8]; first compound 0.1 µM): 0.631
- relative viability ([9]; first compound 0.001 µM): 0.739
- relative viability ([9]; first compound 0.003162 µM): 0.553
- relative viability ([9]; first compound 0.01 µM): 0.494
- relative viability ([9]; first compound 0.03162 µM): 0.575
- relative viability ([9]; first compound 0.1 µM): 0.368
- relative viability ([10]; first compound 0.001 µM): 0.18
- relative viability ([10]; first compound 0.003162 µM): 0.226
- relative viability ([10]; first compound 0.01 µM): 0.212
- relative viability ([10]; first compound 0.03162 µM): 0.2
- relative viability ([10]; first compound 0.1 µM): 0.195
- relative viability ([11]; first compound 0.001 µM): 0.836
- relative viability ([11]; first compound 0.003162 µM): 1.07
- relative viability ([11]; first compound 0.01 µM): 1.01
- relative viability ([11]; first compound 0.03162 µM): 0.878
- relative viability ([11]; first compound 0.1 µM): 0.519
- relative viability ([12]; first compound 0.001 µM): 0.139
- relative viability ([12]; first compound 0.003162 µM): 0.19
- relative viability ([12]; first compound 0.01 µM): 0.0904
- relative viability ([12]; first compound 0.03162 µM): 0.0585
- relative viability ([12]; first compound 0.1 µM): 0.0757
- relative viability ([13]; first compound 0.001 µM): 0.33
- relative viability ([13]; first compound 0.003162 µM): 0.27
- relative viability ([13]; first compound 0.01 µM): 0.471
- relative viability ([13]; first compound 0.03162 µM): 0.353
- relative viability ([14]; first compound 0.001 µM): 0.981
- relative viability ([14]; first compound 0.003162 µM): 0.907
- relative viability ([14]; first compound 0.01 µM): 1
- relative viability ([14]; first compound 0.03162 µM): 0.932
- relative viability ([14]; first compound 0.1 µM): 0.562
- relative viability ([15]; first compound 0.001 µM): 0.867
- relative viability ([15]; first compound 0.003162 µM): 1.09
- relative viability ([15]; first compound 0.01 µM): 0.949
- relative viability ([15]; first compound 0.03162 µM): 0.524
- relative viability ([15]; first compound 0.1 µM): 0.415
- relative viability ([16]; first compound 0.001 µM): 0.443
- relative viability ([16]; first compound 0.003162 µM): 0.346
- relative viability ([16]; first compound 0.01 µM): 0.364
- relative viability ([16]; first compound 0.03162 µM): 0.388
- relative viability ([16]; first compound 0.1 µM): 0.31
- relative viability ([17]; first compound 0.001 µM): 0.571
- relative viability ([17]; first compound 0.003162 µM): 0.616
- relative viability ([17]; first compound 0.01 µM): 0.732
- relative viability ([17]; first compound 0.03162 µM): 0.556
- relative viability ([17]; first compound 0.1 µM): 0.249
- relative viability ([18]; first compound 0.001 µM): 0.187
- relative viability ([18]; first compound 0.003162 µM): 0.175
- relative viability ([18]; first compound 0.01 µM): 0.169
- relative viability ([18]; first compound 0.03162 µM): 0.144
- relative viability ([18]; first compound 0.1 µM): 0.152
- relative viability ([19]; first compound 0.001 µM): 0.187
- relative viability ([19]; first compound 0.003162 µM): 0.183
- relative viability ([19]; first compound 0.01 µM): 0.19
- relative viability ([19]; first compound 0.03162 µM): 0.163
- relative viability ([19]; first compound 0.1 µM): 0.163
- relative viability ([20]; first compound 0.001 µM): 0.574
- relative viability ([20]; first compound 0.003162 µM): 0.685
- relative viability ([20]; first compound 0.01 µM): 0.649
- relative viability ([20]; first compound 0.03162 µM): 0.589
- relative viability ([20]; first compound 0.1 µM): 0.367
- relative viability ([21]; first compound 0.003162 µM): 0.963
- relative viability ([21]; first compound 0.01 µM): 0.952
- relative viability ([21]; first compound 0.1 µM): 0.852
- relative viability ([22]; first compound 0.001 µM): 0.184
- relative viability ([22]; first compound 0.003162 µM): 0.3
- relative viability ([22]; first compound 0.01 µM): 0.332
- relative viability ([22]; first compound 0.03162 µM): 0.193
- relative viability ([22]; first compound 0.1 µM): 0.225
- relative viability ([23]; first compound 0.001 µM): 0.28
- relative viability ([23]; first compound 0.003162 µM): 0.34
- relative viability ([23]; first compound 0.01 µM): 0.343
- relative viability ([23]; first compound 0.03162 µM): 0.276
- relative viability ([23]; first compound 0.1 µM): 0.311
- relative viability ([24]; first compound 0.003162 µM): 0.459
- relative viability ([24]; first compound 0.01 µM): 0.38
- relative viability ([24]; first compound 0.03162 µM): 0.239
- relative viability ([24]; first compound 0.1 µM): 0.245
- relative viability ([25]; first compound 0.001 µM): 0.67
- relative viability ([25]; first compound 0.003162 µM): 0.745
- relative viability ([25]; first compound 0.01 µM): 0.555
- relative viability ([25]; first compound 0.03162 µM): 0.614
- relative viability ([25]; first compound 0.1 µM): 0.341
